For orientation: IC50 means the concentration that gives 50% inhibition. A word on the Ki: it is the equilibrium dissociation constant of an inhibitor or competing ligand from its target.

The target in test [1] is Melanocortin receptor 3 (Homo sapiens, UniProt P41968). It counts as cell membranes, HEK293, Membrane. The conditions noted are these: hek293. Also: in other assays of this panel Not Active means under 50% inhibition at 10 µM.
Test [2] concerns the target T1, Cysteinyl leukotriene receptor 1 (Homo sapiens, UniProt Q9Y271). Also: in other assays of this panel Not Active means under 50% inhibition at 10 µM.
T1 sequence (Q9Y271 whole entry): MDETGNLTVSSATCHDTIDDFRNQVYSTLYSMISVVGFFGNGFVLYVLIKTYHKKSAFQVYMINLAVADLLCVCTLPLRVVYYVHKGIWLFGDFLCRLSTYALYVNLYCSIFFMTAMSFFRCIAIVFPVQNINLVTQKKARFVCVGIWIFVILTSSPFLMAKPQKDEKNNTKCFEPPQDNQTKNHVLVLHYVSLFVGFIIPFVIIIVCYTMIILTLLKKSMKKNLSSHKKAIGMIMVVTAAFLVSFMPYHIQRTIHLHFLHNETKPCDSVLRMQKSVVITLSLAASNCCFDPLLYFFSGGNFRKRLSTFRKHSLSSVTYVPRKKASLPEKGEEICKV
Type of test: cell membranes, CHO-K1, Membrane. The conditions noted are these: cho-k1.

The target in test [3] is Glycine receptor (Rattus norvegicus, UniProt P22771+P24524+P07727+P20781). It counts as cell membranes, Wistar, Spinal cord, Membrane. Also: in other assays of this panel Not Active means under 50% inhibition at 10 µM.
The target in test [4] is Tyrosine-protein kinase Lck (Homo sapiens, UniProt P06239). Briefly: DRUGMATRIX: Protein Tyrosine Kinase, LCK enzyme inhibition (substrate: Poly(Glu:Tyr)). It counts as cell-based, Insect cells. The note with it: Not Active = under 50% inhibition at 10 µM.
Tyrosine-protein kinase Lck, sequence (P06239 whole entry): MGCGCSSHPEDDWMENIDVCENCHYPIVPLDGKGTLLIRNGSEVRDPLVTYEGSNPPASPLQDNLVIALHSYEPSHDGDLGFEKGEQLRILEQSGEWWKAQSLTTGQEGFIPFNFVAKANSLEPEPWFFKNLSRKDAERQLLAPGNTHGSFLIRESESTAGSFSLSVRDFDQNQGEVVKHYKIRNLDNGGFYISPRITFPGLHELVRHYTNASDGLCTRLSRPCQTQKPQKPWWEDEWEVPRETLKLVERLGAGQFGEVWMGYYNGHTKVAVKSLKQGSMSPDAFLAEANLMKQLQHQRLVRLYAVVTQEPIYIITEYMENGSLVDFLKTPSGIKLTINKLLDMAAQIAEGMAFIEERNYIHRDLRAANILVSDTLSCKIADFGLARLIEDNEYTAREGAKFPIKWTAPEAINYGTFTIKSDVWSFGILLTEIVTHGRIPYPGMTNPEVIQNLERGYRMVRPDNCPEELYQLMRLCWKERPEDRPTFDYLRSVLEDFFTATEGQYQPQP
Test [5] has as its target Estrogen receptor beta (Homo sapiens, UniProt Q92731). The note with it: sf9. Also: in other assays of this panel Not Active means under 50% inhibition at 10 µM.
Test [6] has as its target T2, Alpha-1B adrenergic receptor (Rattus norvegicus, UniProt P15823).
T2 sequence (P15823 whole entry): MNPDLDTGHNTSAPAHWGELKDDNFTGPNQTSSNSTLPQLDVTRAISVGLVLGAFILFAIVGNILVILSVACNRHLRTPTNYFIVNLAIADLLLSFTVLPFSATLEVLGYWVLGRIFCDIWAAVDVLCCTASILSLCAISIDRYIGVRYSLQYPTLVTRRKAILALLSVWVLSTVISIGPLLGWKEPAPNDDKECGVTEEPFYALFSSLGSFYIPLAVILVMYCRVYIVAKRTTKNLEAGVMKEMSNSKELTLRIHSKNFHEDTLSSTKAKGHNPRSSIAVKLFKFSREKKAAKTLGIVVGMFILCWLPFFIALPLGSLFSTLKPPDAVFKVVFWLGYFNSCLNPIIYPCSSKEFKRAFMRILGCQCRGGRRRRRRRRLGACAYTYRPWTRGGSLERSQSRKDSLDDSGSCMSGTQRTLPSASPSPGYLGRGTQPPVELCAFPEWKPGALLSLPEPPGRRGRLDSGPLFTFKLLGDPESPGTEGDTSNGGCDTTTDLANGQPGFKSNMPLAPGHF
The experiment in a line: DRUGMATRIX: Alpha-1B adrenergic receptor radioligand binding (ligand: prazosin). The conditions noted are these: Not Active = under 50% inhibition at 10 µM. It counts as cell membranes, Wistar, Liver, Membrane.

Melanocortin receptor 3, sequence (P41968 whole entry): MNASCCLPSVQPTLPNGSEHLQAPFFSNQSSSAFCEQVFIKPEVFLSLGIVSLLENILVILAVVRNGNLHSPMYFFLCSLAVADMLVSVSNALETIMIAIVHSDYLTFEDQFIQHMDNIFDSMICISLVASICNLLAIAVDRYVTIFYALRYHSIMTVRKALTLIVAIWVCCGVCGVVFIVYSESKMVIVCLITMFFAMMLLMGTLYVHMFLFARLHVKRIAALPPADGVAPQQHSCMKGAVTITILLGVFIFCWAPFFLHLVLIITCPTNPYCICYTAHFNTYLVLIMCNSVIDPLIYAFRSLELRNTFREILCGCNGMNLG
Estrogen receptor beta, sequence (Q92731 whole entry): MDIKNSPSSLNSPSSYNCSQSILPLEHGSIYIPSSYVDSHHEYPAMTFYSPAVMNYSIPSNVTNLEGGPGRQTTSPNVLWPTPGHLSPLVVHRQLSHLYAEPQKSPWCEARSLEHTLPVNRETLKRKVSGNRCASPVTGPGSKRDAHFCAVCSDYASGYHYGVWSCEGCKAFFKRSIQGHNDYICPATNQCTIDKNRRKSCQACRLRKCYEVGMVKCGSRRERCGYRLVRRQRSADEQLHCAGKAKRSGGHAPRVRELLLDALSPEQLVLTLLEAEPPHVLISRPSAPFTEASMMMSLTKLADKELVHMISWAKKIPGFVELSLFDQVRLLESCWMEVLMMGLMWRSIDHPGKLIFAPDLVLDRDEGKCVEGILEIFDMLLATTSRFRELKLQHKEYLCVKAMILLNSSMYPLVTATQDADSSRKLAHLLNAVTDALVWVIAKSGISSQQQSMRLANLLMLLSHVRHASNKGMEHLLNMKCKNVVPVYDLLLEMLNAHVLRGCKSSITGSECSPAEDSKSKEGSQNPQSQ

Regarding `CCC(C)n1ncn(-c2ccc(N3CCN(c4ccc(OCC5COC(Cn6cncn6)(c6ccc(Cl)cc6Cl)O5)cc4)CC3)cc2)c1=O` (stereo unspecified) [ITRACONAZOLE], the IC50 entry in test [1], in test [2], in test [3], in test [4] (insect cells), in test [5] and in test [6] was “Not Active” in each case.
In the case of `Nc1c(Br)cc(Br)cc1CN[C@H]1CC[C@H](O)CC1` [AMBROXOL], the IC50 result in test [1], in test [2], in test [3], in test [4] (insect cells), in test [5] and in test [6] was “Not Active” each time.
With `CC(C)(C)NCC(O)c1cc(Cl)c(N)c(Cl)c1` (stereo unspecified) [CLENBUTEROL], the IC50 entry in test [1], in test [2], in test [3], in test [4] (insect cells), in test [5] and in test [6] was “Not Active” each time.
On to `Cc1ccccc1N1C(=O)c2cc(S(N)(=O)=O)c(Cl)cc2NC1C` (stereo unspecified) [METOLAZONE], for which the IC50 result in test [1], in test [2], in test [3], in test [4] (insect cells), in test [5] and in test [6] was “Not Active” in each case.
For the compound `Nc1nc2c(ncn2CCC(CO)CO)c(=O)[nH]1` [PENCICLOVIR], the IC50 result in test [1], in test [2], in test [3], in test [4] (insect cells), in test [5] and in test [6] was “Not Active” in each case.
On to `CCOc1ccc(NC(C)=O)cc1` [PHENACETIN], for which the IC50 entry in test [1], in test [2], in test [3], in test [4] (insect cells), in test [5] and in test [6] was “Not Active” in each case.
Regarding `Cc1cc(C(C#N)c2ccc(Cl)cc2)c(Cl)cc1NC(=O)c1cc(I)cc(I)c1O` (stereo unspecified) [CLOSANTEL], the IC50 entry in test [1] was “Not Active”; in test [2], “Not Active”; in test [3] it was “Not Active”; in test [4] (read-out: IC50), 1.25 µM; in test [5] it was “Not Active”; in test [6] it was “Not Active”.
As for `NC1=NC(=O)C(c2ccccc2)O1` (stereo unspecified) [PEMOLINE], the half-maximal inhibitory concentration (IC50) result in test [1], in test [2], in test [3], in test [4] (insect cells), in test [5] and in test [6] was “Not Active” in each case.
For `CN(C)C(=O)Oc1cc(OC(=O)N(C)C)cc(C(O)CNC(C)(C)C)c1` (stereo unspecified) [BAMBUTEROL], the IC50 entry in test [1], in test [2], in test [3], in test [4] (insect cells), in test [5] and in test [6] was “Not Active” in each case.
With `CC1(C)S[C@@H]2[C@H](NC(=O)Cc3ccccc3)C(=O)N2[C@H]1C(=O)O` [PENICILLIN G], the IC50 result in test [1], in test [2], in test [3], in test [4] (insect cells), in test [5] and in test [6] was “Not Active” in each case.
Turning to `C[C@H]1O[C@@H](O[C@H]2[C@@H](O)C[C@H](O[C@H]3[C@@H](O)C[C@H](O[C@H]4CC[C@@]5(C)[C@H](CC[C@@H]6[C@@H]5C[C@@H](O)[C@]5(C)[C@@H](C7=CC(=O)OC7)CC[C@]65O)C4)O[C@@H]3C)O[C@@H]2C)C[C@H](O)[C@@H]1O` [DIGOXIN], the IC50 entry in test [1], in test [2], in test [3], in test [4] (insect cells), in test [5] and in test [6] was “Not Active” each time.
Regarding `c1ccc2c(c1)c1cccc3ccc4cccc2c4c31` [BENZO[E]PYRENE], the IC50 entry in test [1], in test [2], in test [3], in test [4] (insect cells), in test [5] and in test [6] was “Not Active” in each case.
In the case of `Sc1ncnc2nc[nH]c12` [MERCAPTOPURINE ANHYDROUS], the IC50 result in test [1], in test [2], in test [3], in test [4] (insect cells), in test [5] and in test [6] was “Not Active” throughout.
As for `O=c1oc2ccccc2c(O)c1Cc1c(O)c2ccccc2oc1=O` [DICUMAROL], the IC50 result in test [1], in test [2], in test [3], in test [4] (insect cells), in test [5] and in test [6] was “Not Active” each time.
On to `CC1(C)O[C@@H]2C[C@H]3[C@@H]4CCC5=CC(=O)CC[C@]5(C)[C@@]4(F)[C@@H](O)C[C@]3(C)[C@]2(C(=O)CCl)O1` [HALCINONIDE], for which the IC50 result in test [1], in test [2], in test [3], in test [4] (insect cells), in test [5] and in test [6] was “Not Active” in each case.
For the compound `O=c1[nH]c(=O)n([C@H]2C[C@H](O)[C@@H](CO)O2)cc1I` [IDOXURIDINE], the IC50 result in test [1], in test [2], in test [3], in test [4] (insect cells), in test [5] and in test [6] was “Not Active” in each case.
As to `CC(C)C(=O)Nc1ccc([N+](=O)[O-])c(C(F)(F)F)c1` [FLUTAMIDE], the half-inhibitory concentration (IC50) result in test [1], in test [2], in test [3], in test [4] (insect cells), in test [5] and in test [6] was “Not Active” throughout.
For the compound `Cc1ccc2cc3c(ccc4ccccc43)c3c2c1CC3` [3-METHYLCHOLANTHRENE], the half-inhibitory concentration (IC50) result was “Not Active” in test [1]; “Not Active” in test [2]; “Not Active” in test [3]; 55.5 µM in test [4] (read-out: IC50); “Not Active” in test [5]; “Not Active” in test [6].
Take `CC(NC(C)(C)C)C(=O)c1cccc(Cl)c1` (stereo unspecified) [BUPROPION]: the IC50 result in test [1], in test [2], in test [3], in test [4] (insect cells), in test [5] and in test [6] was “Not Active” each time.
For the compound `C=C(C)C1(O)OC(=O)C=C1OC` (stereo unspecified) [PENICILLIC ACID], the IC50 result in test [1], in test [2], in test [3], in test [4] (insect cells), in test [5] and in test [6] was “Not Active” each time.
As for `CCCC1O[C@@H]2C[C@H]3[C@@H]4CCC5=CC(=O)C=C[C@]5(C)[C@H]4[C@@H](O)C[C@]3(C)[C@]2(C(=O)CO)O1` (stereo partly specified) [BUDESONIDE], the IC50 entry in test [1], in test [2], in test [3], in test [4] (insect cells), in test [5] and in test [6] was “Not Active” in each case.
Consider `COCCc1ccc(OCC(O)CNC(C)C)cc1` (stereo unspecified) [METOPROLOL], for which the IC50 entry in test [1], in test [2], in test [3], in test [4] (insect cells), in test [5] and in test [6] was “Not Active” throughout.
Take `CC1CC(OC(=O)C(O)c2ccccc2)CC(C)(C)C1` (stereo unspecified) [CYCLANDELATE]: the IC50 entry in test [1], in test [2], in test [3], in test [4] (insect cells), in test [5] and in test [6] was “Not Active” in each case.
Regarding `C1CCC(C(CC2CCCCN2)C2CCCCC2)CC1` (stereo unspecified) [PERHEXILINE], the IC50 entry in test [1], in test [2], in test [3], in test [4] (insect cells), in test [5] and in test [6] was “Not Active” in each case.
In the case of `CC(C)[C@H]1C(=O)N2CCC[C@H]2[C@]2(O)O[C@](NC(=O)[C@@H]3C=C4c5cccc6[nH]cc(c56)C[C@H]4N(C)C3)(C(C)C)C(=O)N12` [ERGOCORNINE], the IC50 result was “Not Active” in test [1]; “Not Active” in test [2]; “Not Active” in test [3]; “Not Active” in test [4] (insect cells); “Not Active” in test [5]; 0.00519 µM in test [6] (read-out: IC50). The Ki in test [6] (read-out: Ki) came out at 0.00287 µM.
